Laboratory results: ChEMBL document CHEMBL1201862, “PubChem BioAssay data set” (2004)
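All cell lines were grown in 96-well plates and treated with compound for 48 hours. At the GI50, growth is halved.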 The source made the active and inactive calls. Cut-off read from the data, not from the text of the source: active = GI50 up to about 1.1 µM and inactive = higher.

Assays:
Test in all cases: NCI anticancer screen, dose series, 48 h
[1] = test system: SK-MEL-2
[2] = test system: SNB-19
[3] = test system: MOLT-4
[4] = test system: LXFL 529
[5] = test system: HOP-92
[6] = test system: OVCAR-5
[7] = test system: CCRF-CEM
[8] = test system: OVCAR-8
[9] = test system: UO-31
[10] = test system: CAKI-1
[11] = test system: ACHN
[12] = test system: A498
[13] = test system: SNB-75
[14] = test system: SR
[15] = test system: SF-539
[16] = test system: UACC-62
[17] = test system: NCI/ADR-RES
[18] = test system: T47D
[19] = test system: MDA-N
[20] = test system: PC-3

Row | SMILES | GI50 [1] | GI50 [2] | GI50 [3] | GI50 [4] | GI50 [5] | GI50 [6] | GI50 [7] | GI50 [8] | GI50 [9] | GI50 [10] | GI50 [11] | GI50 [12] | GI50 [13] | GI50 [14] | GI50 [15] | GI50 [16] | GI50 [17] | GI50 [18] | GI50 [19] | GI50 [20]
1 | CCOC(=O)c1cccnc1C(OC(C)=O)OC(C)=O | > 100 µM (inactive) | > 100 µM (inactive) | > 100 µM (inactive) | > 100 µM (inactive) | > 100 µM (inactive) | > 100 µM (inactive) | > 100 µM (inactive) | > 100 µM (inactive) | > 100 µM (inactive) | > 100 µM (inactive) | 74.8 µM (inactive) | > 100 µM (inactive) | > 100 µM (inactive) | > 100 µM (inactive) | > 100 µM (inactive) | > 100 µM (inactive) |  |  |  | 
2 | C=CC(=O)C#CC#CC/C=C\CCCCCCC | > 20.6 µM (inactive) | > 15.5 µM (inactive) | 4.53 µM (inactive) | 7.74 µM (inactive) | > 11.3 µM (inactive) | > 20.6 µM (inactive) | 4.9 µM (inactive) | > 19.8 µM (inactive) | > 20.6 µM (inactive) | > 20.6 µM (inactive) | > 20.6 µM (inactive) | > 20.6 µM (inactive) | > 20.6 µM (inactive) | 5.65 µM (inactive) | > 20.6 µM (inactive) | > 20.6 µM (inactive) | > 20.6 µM (inactive) | > 20.6 µM (inactive) |  | 
3 | COC(=O)CSc1nnc(-c2ccccc2)[nH]1 | > 100 µM (inactive) | > 100 µM (inactive) | 16.4 µM (inactive) | > 100 µM (inactive) | > 100 µM (inactive) | > 100 µM (inactive) | > 100 µM (inactive) | > 100 µM (inactive) | > 100 µM (inactive) | > 100 µM (inactive) | > 100 µM (inactive) | > 100 µM (inactive) | 40.5 µM (inactive) | 3.7 µM (inactive) | > 100 µM (inactive) | > 100 µM (inactive) |  |  |  | 
4 | O=C1C(=O)N(c2ccc(Cl)cc2)C(=O)/C(=N/c2cccc3c(=O)[nH][nH]c(=O)c23)C1c1nc2ccccc2o1 (configuration not stated) | > 100 µM (inactive) | 84.9 µM (inactive) | > 100 µM (inactive) | > 100 µM (inactive) | 84.9 µM (inactive) | > 100 µM (inactive) | > 100 µM (inactive) | > 100 µM (inactive) | > 100 µM (inactive) | > 100 µM (inactive) | > 100 µM (inactive) | > 100 µM (inactive) | > 100 µM (inactive) | > 100 µM (inactive) | > 100 µM (inactive) | > 100 µM (inactive) |  |  |  | 
5 | CCN(CC)c1ccc(/C=C2/C[N+](C)(C)C/C(=C/c3ccc(N(CC)CC)cc3)C2=O)cc1 | 1.87 µM (inactive) | 3.19 µM (inactive) | 1.51 µM (inactive) | 1.1 µM (active) | 0.813 µM (active) | 9.73 µM (inactive) | 1.03 µM (active) | 3.32 µM (inactive) | > 58.9 µM (inactive) | > 48 µM (inactive) | 32 µM (inactive) | 12.4 µM (inactive) | 1.62 µM (inactive) | 0.968 µM (active) | 2.32 µM (inactive) | 2.01 µM (inactive) | > 100 µM (inactive) | 2.4 µM (inactive) | 1.66 µM (inactive) | 3.05 µM (inactive)
6 | O=S1(=O)CS(=O)(=O)OCCO1 | 50.8 µM (inactive) | 31.7 µM (inactive) | 10.4 µM (inactive) | > 100 µM (inactive) | 31.2 µM (inactive) | 85.5 µM (inactive) | 18.5 µM (inactive) | 55.3 µM (inactive) | 61 µM (inactive) | 38.4 µM (inactive) | 15.3 µM (inactive) | 52.5 µM (inactive) | 14 µM (inactive) | 153 µM (inactive) | 11.3 µM (inactive) | 6.43 µM (inactive) | 50.9 µM (inactive) | 53.1 µM (inactive) | 33.8 µM (inactive) | 82 µM (inactive)
7 | CC1OC(OCC2OC(Oc3c(-c4ccc(O)cc4)oc4cc(O)cc(O)c4c3=O)C(OC3OCC(O)(CO)C3O)C(O)C2O)C(O)C(O)C1O (configuration not stated) | > 100 µM (inactive) | > 100 µM (inactive) | > 100 µM (inactive) | > 100 µM (inactive) | > 100 µM (inactive) | > 100 µM (inactive) | 25.7 µM (inactive) | > 100 µM (inactive) | > 100 µM (inactive) | > 100 µM (inactive) | > 100 µM (inactive) | > 100 µM (inactive) | > 100 µM (inactive) | > 100 µM (inactive) | > 100 µM (inactive) | > 100 µM (inactive) |  |  |  | 
8 | CC[C@]12C=CCN3CCC4(c5cc([C@@]6(C(=O)OC)CC7CN(CCc8c6[nH]c6ccccc86)CC6CCCCC67)c(OC)cc5N(C)C4[C@](O)(C(=O)OC)C1OC(C)=O)[C@@H]32 (some centres not stated) | < 0.01 µM (active) | < 0.01 µM (active) | < 0.01 µM (active) | < 0.01 µM (active) | < 0.01 µM (active) | 0.021 µM (active) | < 0.01 µM (active) | < 0.015 µM (active) | 0.157 µM (active) | < 0.0252 µM (active) | < 0.0146 µM (active) | < 0.015 µM (active) | < 0.01 µM (active) |  | < 0.01 µM (active) | < 0.01 µM (active) | 0.186 µM (active) |  | < 0.01 µM (active) | < 0.01 µM (active)
9 | O=Cc1ccc(-c2cccs2)s1 | > 100 µM (inactive) | > 100 µM (inactive) | > 95.1 µM (inactive) | 1.76 µM (inactive) | 55.6 µM (inactive) | 16.7 µM (inactive) | 81.8 µM (inactive) | > 100 µM (inactive) | 64 µM (inactive) | 13.8 µM (inactive) | > 100 µM (inactive) | 2.46 µM (inactive) | 76 µM (inactive) | 77.4 µM (inactive) | > 100 µM (inactive) | 1.16 µM (inactive) | 42.2 µM (inactive) | 46.9 µM (inactive) | > 100 µM (inactive) | > 100 µM (inactive)
10 | CN(C)CCNc1ccc2nnn3c4ccccc4c(=O)c1c23 | 3.7 µM (inactive) | 4.56 µM (inactive) | 1.27 µM (inactive) | 3.6 µM (inactive) | 2.48 µM (inactive) | 3.72 µM (inactive) | 2.27 µM (inactive) | 2.21 µM (inactive) | 1.32 µM (inactive) | 2.5 µM (inactive) | 1.22 µM (inactive) | 2.59 µM (inactive) | 2.55 µM (inactive) | 2.34 µM (inactive) | 4.75 µM (inactive) | 3.39 µM (inactive) | 2.4 µM (inactive) | 6 µM (inactive) | 2.81 µM (inactive) | 2.41 µM (inactive)
11 | C/C=C/C1=C(Cl)C(=O)[C@@H](Cl)[C@@]1(O)C(=O)OC [(+)-CRYPTOSPORIPSIN] | 2.72 µM (inactive) | 3.8 µM (inactive) | 3.66 µM (inactive) | 2.64 µM (inactive) | 2.25 µM (inactive) | 11.2 µM (inactive) | 0.912 µM (active) | 2.08 µM (inactive) | 5.61 µM (inactive) | 2.39 µM (inactive) | 2.41 µM (inactive) | 5.77 µM (inactive) | 7.38 µM (inactive) | 1.84 µM (inactive) | 2.19 µM (inactive) | 1.65 µM (inactive) | 2.15 µM (inactive) |  |  | 
